Active and inactive are the calls of the source. No cut-off for these calls is given here.

For one data set, the system named is UMUC3. The note with it: time 72 hrs.
By GI50 is commonly meant the concentration that inhibits growth by half. Lower therefore signals more potent growth inhibition. Take `CCCc1cc2cc(-n3nc(C)c4c3CC(C)(C)CC4=O)cc(N[C@H]3CC[C@H](O)CC3)c2c(=O)[nH]1`: the GI50 worked out at 0.45 µM.

In another data set the test system is SK-BR-3. As to the kind of experiment: Induction of heat shock response in human SK-BR-3 cells at 10 uM incubated for 18 hrs by Western blot analysis. It is filed as cell-based. The note with it: sk-br-3, 18 h. Background: In western blotting, separated proteins are transferred to a membrane and probed.
Turning to `CCCc1cc2cc(-n3nc(C)c4c3CC(C)(C)CC4=O)cc(N3CCC(O)CC3)c2c(=O)[nH]1`, the Activity result is recorded as “Non-Toxic”.

System in a further data set: not listed separately
Briefly: Growth inhibition of human LNCaP-LN3 cells incubated for 72 hrs by Cell Titer-Glo luminescent cell viability assay. It counts as functional.
Conditions: not given
In general terms: Cellular ATP, detected with luciferase, serves as a proxy for viable cell number.
The molecule `CCCc1cc2cc(-n3nc(C)c4c3CC(C)(C)CC4=O)cc(N[C@H]3CC[C@H](O)CC3)c2c(=O)[nH]1` registered a GI50 of 1.07 µM.

The next data set deals with PC-3. Briefly: Growth inhibition of human PC-3 cells incubated for 72 hrs by Cell Titer-Glo luminescent cell viability assay. It is filed as functional.
Conditions: not given
Regarding `CCCc1cc2cc(-n3nc(C)c4c3CC(C)(C)CC4=O)cc(N[C@H]3CC[C@H](O)CC3)c2c(=O)[nH]1`, halving of growth (GI50) required 1.56 µM.

Another data set addresses T1, Heat shock protein HSP 90-alpha (Homo sapiens, UniProt P07900).
Conditions: not given
What is called IC50 is the concentration that gives 50% inhibition. A low value points to higher potency. Consider `CCCC1Cc2cc(-n3nc(C)c4c3CC(C)(C)CC4=O)cc(N3CCC(O)CC3)c2C(=O)N1` (stereo not drawn), for which the IC50 was > 10 µM.

In turn, `Cc1nn(-c2cc(N[C@H]3CC[C@H](O)CC3)c3c(=O)[nH]c(C(C)C)cc3c2)c2c1C(=O)CC(C)(C)C2` returned a 50% inhibitory concentration (IC50) of 0.173 µM.

For `CCCc1cc2cc(-n3nc(C)c4c3CC(C)(C)CC4=O)cc(N(C)CCN(CC)CC)c2c(=O)[nH]1`, the IC50 was > 50 µM.

Consider `Cc1nn(-c2cc(N[C@H]3CC[C@H](O)CC3)c3c(=O)[nH]c(CC(C)C)cc3c2)c2c1C(=O)CC(C)(C)C2`, for which the half-maximal inhibitory concentration (IC50) is > 50 µM.

In turn, `Cc1nn(-c2cc(N[C@H]3CC[C@H](O)CC3)c3c(=O)[nH]c(C4CC4)cc3c2)c2c1C(=O)CC(C)(C)C2` gave an IC50 of 1.88 µM.

As to `CCCCc1cc2cc(-n3nc(C)c4c3CC(C)(C)CC4=O)cc(N[C@H]3CC[C@H](O)CC3)c2c(=O)[nH]1`, the 50% inhibitory concentration (IC50) is > 50 µM.

As to `Cc1cc2cc(-n3nc(C)c4c3CC(C)(C)CC4=O)cc(N[C@H]3CC[C@H](O)CC3)c2c(=O)[nH]1`, the IC50 is 0.294 µM.

In the case of `Cc1nn(-c2cc(N[C@H]3CC[C@H](O)CC3)c3c(=O)[nH]c(CO)cc3c2)c2c1C(=O)CC(C)(C)C2`, the midpoint of inhibition, the IC50, lay at 0.824 µM. This IC50 lies about 2.8-fold higher than the previous one.

`CCCc1cc2cc(-n3nc(C)c4c3CC(C)(C)CC4=O)cc(N3CCN(C(=O)OC(C)(C)C)CC3)c2c(=O)[nH]1`: the IC50 is > 50 µM.

For the molecule `Cc1nn(-c2cc(N[C@H]3CC[C@H](O)CC3)c3c(=O)[nH]c(C(C)(C)C)cc3c2)c2c1C(=O)CC(C)(C)C2`, the IC50 is > 50 µM.

As for `CCCc1cc2cc(-n3nc(C)c4c3CC(C)(C)CC4=O)cc(N3CCN(C)CC3)c2c(=O)[nH]1`, the IC50 worked out at 8.52 µM.

`CCc1cc2cc(-n3nc(C)c4c3CC(C)(C)CC4=O)cc(N[C@H]3CC[C@H](O)CC3)c2c(=O)[nH]1` yielded an IC50 of 0.18 µM.

With `COCc1cc2cc(-n3nc(C)c4c3CC(C)(C)CC4=O)cc(N[C@H]3CC[C@H](O)CC3)c2c(=O)[nH]1`, the IC50 turned out to be 0.306 µM.

As to `CCCC1Cc2cc(-n3nc(C)c4c3CC(C)(C)CC4=O)cc(N[C@H]3CC[C@H](O)CC3)c2C(=O)N1` (stereo partly drawn), inhibition was half-maximal at 1.6 µM (IC50). This IC50 is about 5.2-fold higher than that of the molecule before.

In the case of `CCCc1cc2cc(-n3nc(C)c4c3CC(C)(C)CC4=O)cc(N3CCOCC3)c2c(=O)[nH]1`, the half-inhibitory concentration (IC50) was > 50 µM.

Take `CCCc1cc2cc(-n3nc(C)c4c3CC(C)(C)CC4=O)cc(N3CCNCC3)c2c(=O)[nH]1`: the IC50 was > 50 µM.

`CCCc1cc2cc(-n3nc(C)c4c3CC(C)(C)CC4=O)cc(NC3CCN(C)CC3)c2c(=O)[nH]1` returned an IC50 of 17.1 µM.

The next data set deals with T2, Heat shock protein HSP 90-beta (Homo sapiens, UniProt P08238). As to conditions: HCT-116, dose 300-1000 nM, time 24.0 hrs.
T2 sequence (P08238 whole entry): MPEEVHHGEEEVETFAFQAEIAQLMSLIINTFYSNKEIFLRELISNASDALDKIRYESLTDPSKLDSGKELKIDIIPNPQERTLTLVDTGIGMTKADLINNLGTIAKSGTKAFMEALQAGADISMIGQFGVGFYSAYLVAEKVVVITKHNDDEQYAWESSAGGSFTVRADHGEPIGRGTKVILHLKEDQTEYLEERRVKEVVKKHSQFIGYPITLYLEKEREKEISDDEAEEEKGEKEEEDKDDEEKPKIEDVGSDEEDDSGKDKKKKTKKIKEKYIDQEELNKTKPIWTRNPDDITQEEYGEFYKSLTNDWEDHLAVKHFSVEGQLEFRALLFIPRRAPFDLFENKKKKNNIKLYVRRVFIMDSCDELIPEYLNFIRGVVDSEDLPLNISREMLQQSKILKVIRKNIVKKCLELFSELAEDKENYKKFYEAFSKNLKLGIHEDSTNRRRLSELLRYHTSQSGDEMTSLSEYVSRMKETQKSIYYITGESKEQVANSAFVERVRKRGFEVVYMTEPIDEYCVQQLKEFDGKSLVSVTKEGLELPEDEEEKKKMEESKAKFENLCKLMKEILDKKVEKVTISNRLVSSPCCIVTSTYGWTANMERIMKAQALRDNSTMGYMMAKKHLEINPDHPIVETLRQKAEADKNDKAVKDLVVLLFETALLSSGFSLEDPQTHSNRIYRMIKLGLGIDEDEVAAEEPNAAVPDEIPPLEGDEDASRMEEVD
As to `CCCC1Cc2cc(-n3nc(C)c4c3CC(C)(C)CC4=O)cc(N[C@H]3CC[C@H](O)CC3)c2C(=O)N1` (stereo partly drawn), the inhibition entry was “Active”.

The test system of another data set is Panel NCI-60 (60 carcinoma cell lines). As to the kind of experiment: Growth inhibition of human NCI60 cells incubated for 72 hrs by Cell Titer-Glo luminescent cell viability assay. It is filed as functional.
Conditions: not given
`CCCc1cc2cc(-n3nc(C)c4c3CC(C)(C)CC4=O)cc(N[C@H]3CC[C@H](O)CC3)c2c(=O)[nH]1`: the GI50 was < 0.1 µM.

As to `CCCC1Cc2cc(-n3nc(C)c4c3CC(C)(C)CC4=O)cc(N[C@H]3CC[C@H](O)CC3)c2C(=O)N1` (stereo partly drawn), the concentration for 50% growth inhibition (GI50) is < 0.1 µM.

A further data set concerns the target T2, Heat shock protein HSP 90-beta. The note with it: HCT-116, dose 300-1000 nM, time 24.0 hrs. The source holds these as a separate data set.
As for `CCCC1Cc2cc(-n3nc(C)c4c3CC(C)(C)CC4=O)cc(N[C@H]3CC[C@H](O)CC3)c2C(=O)N1` (stereo partly drawn), the inhibition entry was “Active”.

The test system of a further data set is SK-BR-3. As to the kind of experiment: Induction of heat shock response in human SK-BR-3 cells at 1 uM incubated for 18 hrs by Western blot analysis. It is filed as cell-based. The note with it: sk-br-3, 18 h.
For the molecule `COC1=C2C[C@@H](C)C[C@H](OC)[C@H](O)[C@@H](C)/C=C(\C)[C@H](OC(N)=O)[C@@H](OC)/C=C\C=C(/C)C(=O)NC(=CC1=O)C2=O` [GELDANAMYCIN], the Activity entry was “Toxic”.

For a further data set, the target named is T2, Heat shock protein HSP 90-beta. As to conditions: HCT-116, dose 300-1000 nM, time 24.0 hrs. This is another data set of the same source.
`CCCC1Cc2cc(-n3nc(C)c4c3CC(C)(C)CC4=O)cc(N[C@H]3CC[C@H](O)CC3)c2C(=O)N1` (stereo partly drawn): the inhibition result is “Active”.

The next data set shares this target.
Conditions: not given
Turning to `CCCC1Cc2cc(-n3nc(C)c4c3CC(C)(C)CC4=O)cc(N3CCC(O)CC3)c2C(=O)N1` (stereo not drawn), the IC50 is > 5 µM.

Molecule `Cc1nn(-c2cc(N[C@H]3CC[C@H](O)CC3)c3c(=O)[nH]c(C(C)C)cc3c2)c2c1C(=O)CC(C)(C)C2` displayed an IC50 of 0.051 µM.

`CCCc1cc2cc(-n3nc(C)c4c3CC(C)(C)CC4=O)cc(N(C)CCN(CC)CC)c2c(=O)[nH]1` gave an IC50 of 4.46 µM.

As to `Cc1nn(-c2cc(N[C@H]3CC[C@H](O)CC3)c3c(=O)[nH]c(CC(C)C)cc3c2)c2c1C(=O)CC(C)(C)C2`, the concentration for half-maximal inhibition (IC50) came out at 0.264 µM.

As for `Cc1nn(-c2cc(N[C@H]3CC[C@H](O)CC3)c3c(=O)[nH]c(C4CC4)cc3c2)c2c1C(=O)CC(C)(C)C2`, inhibition was half-maximal at 0.946 µM (IC50).

In the case of `CCCCc1cc2cc(-n3nc(C)c4c3CC(C)(C)CC4=O)cc(N[C@H]3CC[C@H](O)CC3)c2c(=O)[nH]1`, inhibition was half-maximal at 0.156 µM (IC50).

Regarding `Cc1cc2cc(-n3nc(C)c4c3CC(C)(C)CC4=O)cc(N[C@H]3CC[C@H](O)CC3)c2c(=O)[nH]1`, the IC50 worked out at 0.101 µM. Against the preceding molecule, the IC50 is about 1.5-fold lower.

`Cc1nn(-c2cc(N[C@H]3CC[C@H](O)CC3)c3c(=O)[nH]c(CO)cc3c2)c2c1C(=O)CC(C)(C)C2` gave an IC50 of 0.233 µM.

`CCCc1cc2cc(-n3nc(C)c4c3CC(C)(C)CC4=O)cc(N3CCN(C(=O)OC(C)(C)C)CC3)c2c(=O)[nH]1`: 0.463 µM corresponded to half-maximal inhibition (IC50).

Regarding `Cc1nn(-c2cc(N[C@H]3CC[C@H](O)CC3)c3c(=O)[nH]c(C(C)(C)C)cc3c2)c2c1C(=O)CC(C)(C)C2`, the IC50 is > 50 µM.

Consider `CCCc1cc2cc(-n3nc(C)c4c3CC(C)(C)CC4=O)cc(N3CCN(C)CC3)c2c(=O)[nH]1`, for which the IC50 came out at 0.426 µM.

`CCc1cc2cc(-n3nc(C)c4c3CC(C)(C)CC4=O)cc(N[C@H]3CC[C@H](O)CC3)c2c(=O)[nH]1` came in with an IC50 of 0.068 µM.

Take `COCc1cc2cc(-n3nc(C)c4c3CC(C)(C)CC4=O)cc(N[C@H]3CC[C@H](O)CC3)c2c(=O)[nH]1`: inhibition was half-maximal at 0.159 µM (IC50).

Take `CCCC1Cc2cc(-n3nc(C)c4c3CC(C)(C)CC4=O)cc(N[C@H]3CC[C@H](O)CC3)c2C(=O)N1` (stereo partly drawn): the IC50 came out at 0.033 µM.

For `CCCc1cc2cc(-n3nc(C)c4c3CC(C)(C)CC4=O)cc(N3CCOCC3)c2c(=O)[nH]1`, half-maximal inhibition (IC50) required 0.121 µM.

`CCCc1cc2cc(-n3nc(C)c4c3CC(C)(C)CC4=O)cc(N3CCNCC3)c2c(=O)[nH]1`: the IC50 came to 4.47 µM.

Turning to `CCCc1cc2cc(-n3nc(C)c4c3CC(C)(C)CC4=O)cc(NC3CCN(C)CC3)c2c(=O)[nH]1`, the midpoint of inhibition, the IC50, lay at 0.513 µM.

For a further data set, the target named is Endoplasmin (Canis lupus familiaris, UniProt P41148). Briefly: Inhibition of FITC-GDA binding to dog GRP94 incubated for 2 hrs by fluorescence polarization assay.
Chain of Endoplasmin (P41148 whole entry): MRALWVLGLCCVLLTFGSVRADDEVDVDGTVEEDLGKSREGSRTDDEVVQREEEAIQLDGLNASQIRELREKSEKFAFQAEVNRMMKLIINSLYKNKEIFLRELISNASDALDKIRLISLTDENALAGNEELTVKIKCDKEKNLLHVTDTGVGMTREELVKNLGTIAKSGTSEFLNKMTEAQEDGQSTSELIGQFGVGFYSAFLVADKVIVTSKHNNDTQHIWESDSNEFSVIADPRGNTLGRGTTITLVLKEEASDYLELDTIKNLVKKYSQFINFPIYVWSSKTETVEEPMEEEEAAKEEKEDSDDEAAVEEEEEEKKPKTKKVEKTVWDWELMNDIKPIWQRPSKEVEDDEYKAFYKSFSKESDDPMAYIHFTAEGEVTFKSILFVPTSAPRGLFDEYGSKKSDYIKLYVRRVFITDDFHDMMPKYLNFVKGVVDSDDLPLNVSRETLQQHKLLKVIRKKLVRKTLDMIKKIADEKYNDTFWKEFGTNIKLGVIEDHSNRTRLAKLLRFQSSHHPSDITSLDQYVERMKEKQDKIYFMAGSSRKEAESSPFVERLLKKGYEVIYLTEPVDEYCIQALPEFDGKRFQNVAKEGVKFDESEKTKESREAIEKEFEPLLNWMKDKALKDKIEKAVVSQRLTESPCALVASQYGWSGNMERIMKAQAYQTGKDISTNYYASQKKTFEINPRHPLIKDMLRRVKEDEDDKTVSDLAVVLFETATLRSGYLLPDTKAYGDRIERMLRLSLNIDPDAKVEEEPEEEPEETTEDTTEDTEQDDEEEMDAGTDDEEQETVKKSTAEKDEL
Conditions: not given
(Polarisation of emitted light reports the rotation of a fluorescent probe.)
In turn, `CC(C)c1cc(C(=O)N2Cc3ccccc3C2)c(O)c2cnoc12` yielded a 50% inhibitory concentration (IC50) of 8.48 µM. That is a single-digit micromolar value.

As to `Cc1cn(-c2cc3c(c(C4CCCC4)c2)C(=O)NCC3)c2c1C(=O)CC(C)(C)C2`, the IC50 is > 10 µM.

A further data set deals with T2, Heat shock protein HSP 90-beta. As to conditions: HCT-116, dose 300-1000 nM, time 24.0 hrs. This is another data set of the same source.
`CCCC1Cc2cc(-n3nc(C)c4c3CC(C)(C)CC4=O)cc(N[C@H]3CC[C@H](O)CC3)c2C(=O)N1` (stereo partly drawn): the inhibition result is “Active”.

The target in another data set is T1, Heat shock protein HSP 90-alpha. As to conditions: HCT-116, dose 300-1000 nM, time 24.0 hrs.
`CCCC1Cc2cc(-n3nc(C)c4c3CC(C)(C)CC4=O)cc(N[C@H]3CC[C@H](O)CC3)c2C(=O)N1` (stereo partly drawn): the inhibition result was “inactive”.

Values taken from ChEMBL document CHEMBL4706657, “The Development of Hsp90β-Selective Inhibitors to Overcome Detriments Associated with pan-Hsp90 Inhibition” (J Med Chem, 2021).
